From ChEMBL document CHEMBL1201862, “PubChem BioAssay data set” (2004)
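A five-concentration, 48-hour dose response in 96-well plates underlies each endpoint, interpolated linearly between surrounding concentrations. GI50 = concentration required for 50% inhibition of growth.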 Calls of active or inactive are those of the source. Rule as the data show it: active = GI50 up to about 1.1 µM and inactive = higher.

How the values were obtained:
Assay in all cases: growth of human tumour cells (NCI), 48 h
SR = system: SR
MOLT-4 = system: MOLT-4
SNB-19 = system: SNB-19
SF-268 = system: SF-268
SK-OV-3 = system: SK-OV-3
SK-MEL-5 = system: SK-MEL-5
786-0 = system: 786-0
BT-549 = system: BT-549
HCT-116 = system: HCT-116
SK-MEL-28 = system: SK-MEL-28
HOP-62 = system: HOP-62
ACHN = system: ACHN
NCI/ADR-RES = system: NCI/ADR-RES
Hs-578T = system: Hs-578T
IGROV-1 = system: IGROV-1
OVCAR-8 = system: OVCAR-8
UACC-257 = system: UACC-257
T47D = system: T47D
NCI-H226 = system: NCI-H226

Measured: GI50

Cc1cc(C)c2c(c1)C1=NCCN1C2(O)c1ccc(Cl)cc1 (stereo not drawn)
inactive: SR 20.1 µM | MOLT-4 37.6 µM | SNB-19 16.2 µM | SF-268 15.8 µM | SK-OV-3 15 µM | SK-MEL-5 14.6 µM | 786-0 16.1 µM | BT-549 13.2 µM | HCT-116 13.3 µM | SK-MEL-28 16.8 µM | HOP-62 15.2 µM | ACHN 16.1 µM | NCI/ADR-RES 14.4 µM | Hs-578T 16.4 µM | IGROV-1 14.2 µM | OVCAR-8 15.8 µM | UACC-257 17.1 µM | T47D 16.4 µM

CC(=O)Nc1ccc(C(O)/C(=N/N)c2nc3ccc(Cl)cc3nc2O)cc1 (stereo not drawn)
inactive: SR > 100 µM | MOLT-4 > 100 µM | SNB-19 > 100 µM | SF-268 > 100 µM | SK-MEL-5 > 100 µM | 786-0 > 100 µM | BT-549 > 100 µM | HCT-116 > 100 µM | SK-MEL-28 > 100 µM | HOP-62 > 100 µM | ACHN > 100 µM | NCI/ADR-RES > 100 µM | Hs-578T > 100 µM | IGROV-1 > 100 µM | OVCAR-8 > 100 µM | NCI-H226 > 100 µM | UACC-257 > 100 µM | T47D > 100 µM

CSC(=S)NN=C1CCCC1.CSC(=S)NN=C1CCCC1.[Zn+2]
inactive: MOLT-4 9.66 µM | SNB-19 40.9 µM | SF-268 34.1 µM | SK-OV-3 > 100 µM | SK-MEL-5 57.1 µM | 786-0 33.5 µM | BT-549 24 µM | HCT-116 14.7 µM | SK-MEL-28 72.4 µM | HOP-62 28.3 µM | ACHN 1.83 µM | NCI/ADR-RES > 100 µM | Hs-578T 29.2 µM | IGROV-1 10.1 µM | OVCAR-8 14.4 µM | NCI-H226 43.9 µM | UACC-257 24 µM | T47D 33.5 µM

NNC(=O)c1ccccc1Nc1ccccc1C(=O)NN
inactive: MOLT-4 > 100 µM | SNB-19 > 100 µM | SF-268 > 100 µM | SK-OV-3 > 100 µM | SK-MEL-5 > 100 µM | 786-0 > 100 µM | BT-549 > 100 µM | HCT-116 > 100 µM | SK-MEL-28 > 100 µM | HOP-62 > 100 µM | ACHN > 100 µM | NCI/ADR-RES > 100 µM | Hs-578T 92.9 µM | IGROV-1 > 100 µM | OVCAR-8 > 100 µM | NCI-H226 > 100 µM | UACC-257 > 100 µM | T47D > 100 µM

N#Cc1ccnc(C(=O)N2CCCC2C(=O)O)c1 (stereo not drawn)
inactive: SR > 100 µM | MOLT-4 > 100 µM | SNB-19 > 100 µM | SF-268 > 100 µM | SK-MEL-5 > 100 µM | 786-0 > 100 µM | BT-549 > 100 µM | HCT-116 > 100 µM | SK-MEL-28 > 100 µM | HOP-62 > 100 µM | ACHN > 100 µM | NCI/ADR-RES > 100 µM | Hs-578T > 100 µM | IGROV-1 > 100 µM | OVCAR-8 > 100 µM | NCI-H226 > 100 µM | UACC-257 > 100 µM | T47D > 100 µM

CCOC(=O)c1cc(C2=C(S)N(CC(C)CC)CC2)c(C(=O)CC)[nH]1 (stereo not drawn)
inactive: SR 5.96 µM | MOLT-4 4.56 µM | SNB-19 19.1 µM | SF-268 21.9 µM | SK-OV-3 23.5 µM | 786-0 16.9 µM | BT-549 19.3 µM | HCT-116 15.3 µM | SK-MEL-28 19.5 µM | ACHN 15.3 µM | NCI/ADR-RES 29.5 µM | Hs-578T 26.9 µM | IGROV-1 20.3 µM | OVCAR-8 21.5 µM | NCI-H226 23.5 µM | UACC-257 17.4 µM | T47D 7.53 µM

Cc1ccc(C2(c3ccc(F)cc3)OC(=O)c3ccccc32)c(O)c1 (stereo not drawn)
inactive: MOLT-4 10.8 µM | SNB-19 16.6 µM | SF-268 19.5 µM | SK-OV-3 11.9 µM | SK-MEL-5 16.3 µM | 786-0 15.4 µM | BT-549 19.7 µM | HCT-116 12.9 µM | HOP-62 14.6 µM | ACHN 14.8 µM | NCI/ADR-RES 16.1 µM | Hs-578T 20.1 µM | IGROV-1 14.4 µM | OVCAR-8 18.2 µM | NCI-H226 15 µM | UACC-257 15.6 µM | T47D 13.5 µM

C=C(C)C12CC(COC(=O)c3ccccc3)C34OC5(OC1C3C1OC1(CO)C(O)C1(O)C(OC(=O)c3ccccc3)C(C)C(C(C)CCCCCCC5O)C14)O2 (stereo not drawn)
inactive: SR 18.5 µM | SNB-19 > 100 µM | SF-268 52.1 µM | SK-OV-3 > 100 µM | SK-MEL-5 11.6 µM | 786-0 > 61.8 µM | BT-549 > 100 µM | HCT-116 52 µM | SK-MEL-28 > 49.5 µM | ACHN 24.3 µM | NCI/ADR-RES 42.4 µM | Hs-578T 26.5 µM | IGROV-1 > 72.8 µM | OVCAR-8 60.4 µM | NCI-H226 40.7 µM | UACC-257 49.3 µM | T47D > 87.9 µM

NC1=CN(CCCO)C2=N/C(=C\c3ccco3)C(=O)N12
inactive: MOLT-4 > 100 µM | SNB-19 > 100 µM | SF-268 > 100 µM | SK-OV-3 > 100 µM | SK-MEL-5 > 100 µM | 786-0 > 100 µM | BT-549 > 100 µM | HCT-116 > 100 µM | SK-MEL-28 > 100 µM | HOP-62 > 100 µM | ACHN > 100 µM | NCI/ADR-RES > 100 µM | Hs-578T > 100 µM | IGROV-1 > 100 µM | OVCAR-8 > 100 µM | NCI-H226 > 100 µM | UACC-257 48.9 µM | T47D > 100 µM

COc1ccc(C2=C3SC=c4ccccc4=C3ON=C2c2ccccc2)cc1
inactive: SR 42 µM | MOLT-4 37.2 µM | SNB-19 > 100 µM | SF-268 > 100 µM | SK-MEL-5 > 100 µM | 786-0 > 100 µM | BT-549 > 100 µM | HCT-116 57.4 µM | SK-MEL-28 > 100 µM | HOP-62 > 100 µM | ACHN > 100 µM | NCI/ADR-RES > 100 µM | Hs-578T > 100 µM | IGROV-1 > 100 µM | OVCAR-8 > 100 µM | NCI-H226 > 100 µM | UACC-257 > 100 µM | T47D 25.4 µM

CCN(CC)c1ccc(C2Nc3ccc4ccccc4c3C3=C2C(=O)CCC3)cc1 (stereo not drawn)
inactive: MOLT-4 > 100 µM | SNB-19 37.3 µM | SF-268 27.5 µM | SK-OV-3 38.4 µM | 786-0 19.4 µM | BT-549 60.8 µM | HCT-116 25.3 µM | SK-MEL-28 > 100 µM | HOP-62 20.4 µM | ACHN 12.2 µM | NCI/ADR-RES 26.6 µM | Hs-578T 11.2 µM | OVCAR-8 14.7 µM | NCI-H226 35.8 µM | UACC-257 > 100 µM | T47D 39 µM
